Paper PMC5053523, “In Vitro Antibacterial Activity of Rhodanine Derivatives against Pathogenic Clinical Isolates” (PLoS ONE, 2016)
≈ marks a conversion by molar mass, not a printed value. Read-outs that look alike come from different tables or passages of the source.

Experiments:
[1] = system: Acinetobacter baumannii; assay: MIC with/without PMBN, Acinetobacter baumannii; assay type: cell-based
Method in brief: (§1)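 Sub-MIC colistin or PMBN added to broth MIC tests of rhodanines and reference antibiotics against Gram-negative strains; AcrAB efflux-deficient E. coli SM1411ΔacrAB also tested.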

[2] = system: Acinetobacter baumannii; assay: Broth microdilution MIC, Acinetobacter baumannii; assay type: cell-based
[3] = system: methicillin-resistant Staphylococcus aureus (MRSA); assay: Broth microdilution MIC/MBC, MRSA; assay type: cell-based
[4] = system: B. licheniformis; assay: Broth microdilution MIC/MBC, B. licheniformis; assay type: cell-based; conditions: Bacillus licheniformis; for MBC: read-out: MBC; for MIC: read-out: MIC
[5] = system: vancomycin resistant enterococci (VRE); assay: Broth microdilution MIC50/MIC90, VRE panel; assay type: cell-based; conditions: Enterococcus, 10 VRE strains
[6] = system: Acinetobacter baumannii; assay: MIC with/without sub-MIC colistin, Acinetobacter baumannii; assay type: cell-based
Method in brief: as §1

[7] = system: Klebsiella pneumoniae; assay: MIC with/without sub-MIC colistin, Klebsiella pneumoniae; assay type: cell-based
Method in brief: as §1

[8] = system: Candida albicans; assay: MIC against Candida albicans; assay type: cell-based; conditions: table prints none, read-out: MIC
[9] = system: Salmonella Typhimurium; assay: MIC with/without sub-MIC colistin, Salmonella Typhimurium; assay type: cell-based
Method in brief: as §1

[10] = system: K. pneumoniae; assay: Broth microdilution MIC, K. pneumoniae; assay type: cell-based
[11] = system: Pseudomonas aeruginosa; assay: MIC with/without PMBN, Pseudomonas aeruginosa; assay type: cell-based
Method in brief: as §1

[12] = system: Bacillus anthracis; assay: microbe, parasite or virus in culture; assay type: cell-based
[13] = system: Klebsiella pneumoniae; assay: MIC with/without PMBN, Klebsiella pneumoniae; assay type: cell-based
Method in brief: as §1

[14] = system: Escherichia coli O157:H7; assay: MIC with/without sub-MIC colistin, Escherichia coli O157:H7; assay type: cell-based
Method in brief: as §1

[15] = system: Pseudomonas aeruginosa; assay: MIC with/without sub-MIC colistin, Pseudomonas aeruginosa; assay type: cell-based
Method in brief: as §1

[16] = system: MRSA USA300; assay: MIC against MRSA USA300 with and without 4% human serum albumin; assay type: cell-based, Staphylococcus aureus; conditions: Staphylococcus aureus, read-out: MIC against MRSA USA300
Method in brief: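 MIC measured in tryptic soy broth spiked with 4% HSA and without it, using CLSI broth microdilution on MRSA USA300. Value reported is the lowest concentration preventing bacterial growth.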

[17] = Acinetobacter baumannii, ATCCBAA747
[18] = Acinetobacter baumannii, ATCCBAA19606
[19] = NCIB9375, B. licheniformis Gibson 46 (NCIB 9375) NR-2494
[20] = NRS712, B. licheniformis NRS 712 NR-2499

## O=C(O)[C@@H](Cc1ccccc1)N1C(=O)/C(=C/c2cccc(Cc3ccccc3)c2)SC1=S [Rh 7]
[1]; Acinetobacter baumannii ATCC BAA747, PMBN (+) 4 μg/mL, read-out: MIC
  MIC: >64 µM
[1]; Acinetobacter baumannii ATCC BAA19606, PMBN (+) 4 μg/mL, read-out: MIC
  MIC: >64 µM
[1]; [17]
  MIC: > 128 µM
[1]; [18]
  MIC: > 128 µM
[2]; ATCC13345
  MIC: > 128 µM
[2]; ATCC17786
  MIC: > 128 µM
[3]; 11 MRSA strains
  MIC50: 8 µM (≈ 3.68 µg/mL)
  MIC90: 16 µM (≈ 7.35 µg/mL)
[3]; MRSA NRS 1
  MBC: 16 µM (≈ 7.35 µg/mL)
  MIC: 8 µM (≈ 3.68 µg/mL)
[3]; MRSA NRS 19
  MBC: 8 µM (≈ 3.68 µg/mL)
  MIC: 8 µM (≈ 3.68 µg/mL)
[3]; MRSA NRS 37
  MBC: 16 µM (≈ 7.35 µg/mL)
  MIC: 16 µM (≈ 7.35 µg/mL)
[3]; MRSA NRS 107
  MBC: 16 µM (≈ 7.35 µg/mL)
  MIC: 16 µM (≈ 7.35 µg/mL)
[3]; MRSA NRS 119
  MBC: 8 µM (≈ 3.68 µg/mL)
  MIC: 8 µM (≈ 3.68 µg/mL)
[3]; MRSA NRS 383
  MBC: 16 µM (≈ 7.35 µg/mL)
  MIC: 16 µM (≈ 7.35 µg/mL)
[3]; MRSA NRS 384
  MBC: 64 µM (≈ 29.4 µg/mL)
  MIC: 8 µM (≈ 3.68 µg/mL)
[3]; MRSA NRS 385
  MBC: 16 µM (≈ 7.35 µg/mL)
  MIC: 8 µM (≈ 3.68 µg/mL)
[3]; MRSA NRS 386
  MBC: > 64 µM
  MIC: 8 µM (≈ 3.68 µg/mL)
[3]; MRSA NRS 387
  MBC: 8 µM (≈ 3.68 µg/mL)
  MIC: 8 µM (≈ 3.68 µg/mL)
[4]; [19]
  MBC: 8 µM (≈ 3.68 µg/mL)
  MIC: 8 µM (≈ 3.68 µg/mL)
[4]; [20]
  MBC: 8 µM (≈ 3.68 µg/mL)
  MIC: 8 µM (≈ 3.68 µg/mL)
[5]; VRE, read-out: MIC 90
  MIC90: 16 µM (≈ 7.35 µg/mL)
[5]; read-out: MIC 50
  MIC50: 16 µM (≈ 7.35 µg/mL)
[6]; Acinetobacter baumannii ATCC BAA747, colistin (+) […], read-out: MIC
  MIC: >64 µM
[6]; Acinetobacter baumannii ATCC BAA19606, colistin (+) […], read-out: MIC
  MIC: >64 µM
[6]; [17]
  MIC: > 128 µM
[6]; [18]
  MIC: > 128 µM
[7]; Klebsiella pneumoniae ATCC BAA 2146, colistin (+) […]
  MIC: >64 µM
[7]; Klebsiella pneumoniae, BAA2146
  MIC: > 128 µM
[8]; ATCC10231, C. albicans ATCC 10231, unit from abstract
  MIC: > 64 µM
[8]; C. albicans NR 29434, unit from abstract
  MIC: > 64 µM
[8]; C. albicans NR 29435, unit from abstract
  MIC: > 64 µM
[8]; C. albicans NR29437, unit from abstract
  MIC: > 64 µM
[8]; C. albicans NR29438, unit from abstract
  MIC: > 64 µM
[8]; C. albicans NR 29446, unit from abstract
  MIC: 64 µM (≈ 29.4 µg/mL)
[8]; C. albicans NR 29448, unit from abstract
  MIC: > 64 µM
[8]; C. albicans NR 29449, unit from abstract
  MIC: > 64 µM
[8]; C. albicans NR 29453, unit from abstract
  MIC: > 64 µM
[8]; C. albicans NR 294436, unit from abstract
  MIC: > 64 µM
[9]; Salmonella Typhimurium ATCC 700720, colistin (+) […], read-out: MIC
  MIC: >64 µM
[9]; Salmonella enterica, ATCC 700720 / TYPHIMURIUM
  MIC: > 128 µM
[10]; K. pneumoniae NR-15417
  MIC: >128 µM
[10]; Klebsiella pneumoniae
  MIC: > 128 µM
[11]; Pseudomonas aeruginosa ATCC 9721, PMBN (+) 4 μg/mL, read-out: MIC
  MIC: >64 µM
[11]; Pseudomonas aeruginosa, ATCC9721
  MIC: > 128 µM
[12]; Bacillus anthracis AMES35
  MBC: 2 µM (≈ 0.919 µg/mL)
  MIC: 2 µM (≈ 0.919 µg/mL)
[12]; Bacillus anthracis UM23
  MBC: 2 µM (≈ 0.919 µg/mL)
  MIC: 2 µM (≈ 0.919 µg/mL)
[12]; Bacillus anthracis Weybridge
  MBC: 2 µM (≈ 0.919 µg/mL)
  MIC: 2 µM (≈ 0.919 µg/mL)
[13]; Klebsiella pneumoniae ATCC BAA 1706, PMBN (+) 4 μg/mL
  MIC: >64 µM
[13]; Klebsiella pneumoniae ATCC BAA 2146, PMBN (+) 4 μg/mL
  MIC: >64 µM
[13]; Klebsiella pneumoniae, BAA1706
  MIC: > 128 µM
[13]; Klebsiella pneumoniae, BAA2146
  MIC: > 128 µM
[14]; Escherichia coli O157:H7 ATCC 35150, colistin (+) […], read-out: MIC
  MIC: >64 µM
[14]; Escherichia coli O157:H7 ATCC 700728, colistin (+) […], read-out: MIC
  MIC: >64 µM
[14]; Escherichia coli, ATCC35150
  MIC: > 128 µM
[14]; Escherichia coli, ATCC700728
  MIC: > 128 µM
[15]; Pseudomonas aeruginosa ATCC 921, colistin (+) […], read-out: MIC
  MIC: >64 µM
[15]; Pseudomonas aeruginosa, ATCC921
  MIC: > 128 µM
[16]; 24 h, Media TSB + 4% HSA
  MIC: > 64 µM
[16]; Media TSB
  MIC: 16 µM (≈ 7.35 µg/mL)
